Measured values as given in US9643951B2, “Compound having somatostatin receptor agonistic activity and pharmaceutical use thereof” (ONO PHARMACEUTICAL CO., LTD., priority 2013, dated 2017).

Tests used:
[1] = Evaluation of cytotoxicity using cultured human hepatocytes (intracellular ATP); type: cell-based; conditions: read-out: IC50 of cytotoxicity (concentration at which 50% of the luminescence is suppressed)
Method: Evaluation of Cytotoxicity Using Cultured Human Hepatocytes
Frozen adhesive human hepatocytes were thawed, suspended in a hepatocellular medium (HCM) purchased from Lonza and inoculated to a 96-well plate coated with collagen. The culture medium of the hepatocytes cultured overnight in an incubator (5% carbon dioxide, 95% air, 37° C.) was exchanged to the medium containing a test compound at a concentration of 0, 12.5, 25, 50, 100, 200 or 400 (×10^−6 mol/L) and the cells were further cultured for 24 hours. Cytotoxicity was evaluated by measuring the intracellular ATP concentration. Specifically, using the Promega Celltiter-Glo luminescent assay kit available from Promega, cells were lysed in the assay buffer included in the kit and the concentration of ATP released from the cells was measured according to the luminescence resulting from luciferin-luciferase enzyme activity. The luminescence was measured on the SpectraMax plate reader from Molecular Devices. The extent of cytotoxicity of a test compound is represented by the concentration (IC50) of the compound at which 50% of the luminescence is suppressed.

human SSTR2 = biological target: T1, human SSTR2 (Homo sapiens, UniProt P30874); test: Evaluation of SSTR2 agonistic activity using cells expressing human SSTR2 (suppression of forskolin-stimulated cAMP production, SSTR2-CHO-K1); type: cell-based
T1 construct: Myc; expressed in transfected cells
T1 sequence (P30874 whole entry): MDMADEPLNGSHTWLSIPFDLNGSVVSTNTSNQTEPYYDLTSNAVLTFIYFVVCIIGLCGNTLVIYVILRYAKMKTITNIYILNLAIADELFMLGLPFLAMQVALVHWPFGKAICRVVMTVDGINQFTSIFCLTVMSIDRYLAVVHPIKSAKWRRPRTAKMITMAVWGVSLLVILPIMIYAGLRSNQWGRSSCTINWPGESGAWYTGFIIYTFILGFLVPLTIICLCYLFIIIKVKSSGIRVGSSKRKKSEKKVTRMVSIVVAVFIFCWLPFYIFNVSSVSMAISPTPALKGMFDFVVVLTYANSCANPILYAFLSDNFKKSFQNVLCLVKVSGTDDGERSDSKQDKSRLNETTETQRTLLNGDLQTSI
Method: Evaluation of SSTR2 Agonistic Activity Using Cells Expressing Human SSTR2
(1) Isolation of Human SSTR2 Gene
Human brain cDNA was purchased from Ambion (catalogue No.: 7962; Lot No.: 040200121). PCR primers, hSSTR2_F1_XhoI: 5′-[…]-3′ (SEQ ID NO: 1) and hSSTR2_R1_EcoRI: 5′-[…]-3′ (SEQ ID NO: 2) were designed on the basis of the sequence GenBank NM_001050.
PCR reaction (95° C. for 2 min.→[98° C. for 10 sec., 60° C. for 30 sec. and 68° C. for 90 sec.]×30 cycles) was carried out using the human brain cDNA as a template and using KOD-plus-(TOYOBO Co., Ltd.). The amplified PCR product was subjected to 1% agarose gel electrophoresis, purified using QIAquick Gel Extraction Kit (QIAGEN) and digested with restriction enzymes XhoI and EcoRI. The digested fragments were ligated to an expression vector (pIRESneo-Myc) using the DNA Ligation Kit Ver. 2 (Takara) and used for transformation of E. coli DH5a. The plasmid pIRESneo-Myc/hSSTR2 was prepared and the DNA sequence thereof was confirmed.
(2) Culture of CHO-K1 Cells
CHO-K1 (−) was cultured in Ham's F-12 medium (containing foetal bovine serum (10%), penicillin (100 U/mL) and streptomycin (0.1 mg/mL)). The transduced cells were cultured in the same medium supplemented with Geneticin (1 mg/mL).
(3) Transduction of CHO-K1 Cells
CHO-K1(−) cells were transduced with the plasmid pIRESneo-Myc/hSSTR2 using Lipofectamine 2000 (Invitrogen). After 48 hours, selection was carried out by replacing the medium with the one containing 1 mg/mL of Geneticin to establish a stable overexpressing cell line (SSTR2-CHO-K1).
(4) Evaluation of SSTR2 Agonistic Activity
The human SSTR2 agonistic activity of a test compound was evaluated according to the following procedures by using a suppression activity of intracellular cyclic AMP (cAMP) production by forskolin stimulation as an index. SSTR2-CHO-K1 cells suspended in Ham's F-12 medium (containing foetal bovine serum (10%), penicillin (100 U/mL) and streptomycin (0.1 mg/mL)) supplemented with 0.25 mg/mL of Geneticin were inoculated into a 96-well plate at a density of 4.0×10^4 cells/0.1 mL per well. On the next day, the medium was removed and washed twice with 0.1 mL of wash buffer [0.1% bovine serum albumin (BSA), 20 mmol/L 4-(2-hydroxyethyl)-1-piperazineethane sulphonic acid (HEPES)-containing Hank's balanced salt solution (HBSS)]. An assay buffer [[…] 3-isobutyl-1-methylxanthine (IBMX), 0.1% BSA, 20 mmol/L HEPES-containing HBSS] was added to the wells at 0.06 mL per well and the plate was incubated for 15 minutes under the conditions of 5% carbon dioxide and 37° C. Thereafter, an assay buffer containing a test compound at a concentration twice as high as the final concentration and 0.02 mmol/L of forskolin was added to wells at 0.06 mL per well and the plate was incubated for 30 minutes under the conditions of 5% carbon dioxide and 37° C. Thereafter, the Assay/Lysis buffer included in the cAMP-Screen® kit (available from Applied Biosystems) was added to wells at 0.12 mL per well and the plate was incubated for 30 minutes under the conditions of 5% carbon dioxide and 37° C. The concentration of cAMP in samples were measured by ELISA according to the instruction of the kit.

[2] = test system: growth hormone (GH) secretion; test: Evaluation of suppression of growth hormone (GH) secretion using rats (GHRH-induced); type: in vivo; conditions: Rattus norvegicus, Procedure (B): oral administration 8 hours beforehand, 1 mg/kg, read-out: percentage of suppression of GH secretion
Method: Evaluation of Suppression of Growth Hormone (GH) Secretion Using Rats
[Procedure (A): Administration of a Test Compound 30 Minutes Beforehand]
A medium (distilled water (Otsuka distilled water, Otsuka Pharmaceutical Factory, […]) IGS rats (Charles River Laboratories Japan, Inc.)) and after 27 minutes, the animals were administered with 50 mg/kg of pentobarbital sodium (Somnopentyl, Kyoritsu Seiyaku Corporation) via the tail vein for anaesthesia. Three minutes after administration of pentobarbital sodium, the rats were administered with 0.01 mg/kg of growth hormone-releasing hormone (GHRH, Bachem) via the tail vein to induce GH secretion. In order to measure the blood GH concentration, 0.2 mL of blood was collected through the jugular vein at 5 minutes after administration of GHRH. The collected blood was centrifuged at 4° C., 13,000×g for 5 minutes to obtain plasma. The blood GH concentration was measured by using Rat/Mouse Growth Hormone ELISA (Millipore) following the instruction of the kit. The percentage (%) of suppression of GH secretion was determined by using the obtained blood GH concentration and the equation {[suppression (%) of GH secretion]=([blood GH concentration of the group administered with the medium]−[blood GH concentration of the group administered with a test compound])/[blood GH concentration of the group administered with the medium]×100}. In the equation, the group administered with the medium represents the group of animals administered with the medium and the group administered with a test compound represents the group of animals administered with a test compound dissolved in the medium.
[Procedure (B): Administration of a Test Compound 8 Hours Beforehand]
A medium (distilled water (Otsuka distilled water, Otsuka Pharmaceutical Factory, […]) IGS rats (Charles River Laboratories Japan, Inc.)) and after 7 hours and 57 minutes, the animals were administered with 50 mg/kg of pentobarbital sodium (Somnopentyl, Kyoritsu Seiyaku Corporation) via the tail vein for anaesthesia. Three minutes after administration of pentobarbital sodium, the rats were administered with 0.01 mg/kg of growth hormone-releasing hormone (GHRH, Bachem) via the tail vein to induce GH secretion. The rest of the procedure is the same as in [Procedure (A)] described above.

[3] = Human hepatic microsome stability test; type: in vitro ADME; conditions: human hepatic microsomes 1 mg/mL; 60 minutes; test compound 0.001 mmol/L; 37° C.
Method: Human Hepatic Microsome Stability Test
To a reaction vessel heated to 37° C. in a water bath, 0.392 mL of phosphate buffer (0.1 mol/L, pH 7.4) containing human hepatic microsomes (1 mg/mL, Xenotech) and NADPH-Co-factor (NADP+1.3 mmol/L, BD-Bioscience) was added and pre-incubated for 5 minutes. A 50% acetonitrile solution (0.008 mL) containing 0.05 mmol/L of a test compound was added thereto to initiate the enzyme reaction (final concentration of the test compound: 0.001 mmol/L). Immediately after initiation of the reaction and at 60 minutes thereafter, 0.050 mL of the reaction solution was respectively collected, which was immediately added to an acetonitrile solution (0.2 mL) containing an internal standard (45 nmol/L, 1-[3-(3,5-dimethylphenyl)-4-quinolinyl]-4-piperidineamine) to terminate the enzyme reaction.
The residual rate (%), which is indicative of stability of the test compound, was calculated using the ratio of peak areas between the test compound and the internal substance determined by LC/MS/MS (TSQ Quantum Discovery MAX, Thermo) analysis of the sample thus prepared by the above procedures followed by filtration, and the equation: {[residual rate (%)=[peak area of a test compound in a sample at 60 minutes after initiation of the reaction/peak area of the internal standard]/[peak area of the test compound in the sample immediately after initiation of the reaction/peak area of the internal standard]×100}.

NC1CCN(c2c(/C=C/c3cccc(Cl)c3)cncc2-c2cc(F)cc(Cl)c2)CC1 [Example 3(1), 1-{3-(3-chloro-5-fluorophenyl)-5-[(E)-2-(3-chlorophenyl)vinyl]-4-pyridinyl}-4-piperidineamine]
IC50 at 24 h [1]: 19 µM
EC50 (human SSTR2): 0.11 nM
inhibition in vivo at 1 mg/kg [2]: 86%
residual rate [3]: 50.3%

Fc1cccc(/C=C/c2cncc(-c3cc(Cl)cc(Cl)c3)c2N2CC[C@@H]3NCCO[C@H]3C2)c1 [Example 3(2), (4aS,8aS)-6-{3-(3,5-dichlorophenyl)-5-[(E)-2-(3-fluorophenyl)vinyl]-4-pyridinyl}octahydro-1H-pyrido[3,4-b][1,4]oxazine]
IC50 at 24 h [1]: 17 µM
EC50 (human SSTR2): 0.097 nM
inhibition in vivo at 1 mg/kg [2]: 84%
residual rate [3]: 48.4%

C/C(=C\c1cncc(-c2cc(Cl)cc(Cl)c2)c1N1CCC(N)CC1)c1cccc(F)c1 [Example 3, 1-{3-(3,5-dichlorophenyl)-5-[(1E)-2-(3-fluorophenyl)-1-propen-1-yl]-4-pyridinyl}-4-piperidineamine]
IC50 at 24 h [1]: 36 µM
EC50 (human SSTR2): 0.04 nM
inhibition in vivo at 1 mg/kg [2]: 88%
residual rate [3]: 85.2%

C/C(=C\c1cncc(-c2cc(Cl)cc(Cl)c2)c1N1CCC(N)CC1)c1cccc(C#N)c1 [Example 4, 3-{(1E)-1-[4-(4-amino-1-piperidinyl)-5-(3,5-dichlorophenyl)-3-pyridinyl]-1-propen-2-yl}benzonitrile]
IC50 at 24 h [1]: 17 µM
EC50 (human SSTR2): 0.034 nM
inhibition in vivo at 1 mg/kg [2]: 84%
residual rate [3]: 100.0%

CCNC1CCN(c2c(-c3ccc(C(F)(F)F)cc3)cncc2-c2cc(Cl)cc(Cl)c2)CC1 [Example 5(1), 1-{3-(3,5-dichlorophenyl)-5-[4-(trifluoromethyl)phenyl]-4-pyridinyl}-N-ethyl-4-piperidineamine]
IC50 at 24 h [1]: 18 µM
EC50 (human SSTR2): 0.045 nM
inhibition in vivo at 1 mg/kg [2]: 90%
residual rate [3]: 57.6%

CCNC1CCN(c2c(-c3ccc(C4(C#N)CC4)cc3)cncc2-c2cc(Cl)cc(Cl)c2)CC1 [Example 5(2), 1-(4-{5-(3,5-dichlorophenyl)-4-[4-(ethylamino)-1-piperidinyl]-3-pyridinyl}phenyl)cyclopropanecarbonitrile]
IC50 at 24 h [1]: 22 µM
EC50 (human SSTR2): 0.036 nM
inhibition in vivo at 1 mg/kg [2]: 90%
residual rate [3]: 80.3%

CCNC1CCN(c2c(-c3ccc(OC(F)F)cc3)cncc2-c2cc(Cl)cc(Cl)c2)CC1 [Example 5(3), 1-{3-(3,5-dichlorophenyl)-5-[4-(difluoromethoxy)phenyl]-4-pyridinyl}-N-ethyl-4-piperidineamine]
IC50 at 24 h [1]: 10 µM
EC50 (human SSTR2): 0.028 nM
inhibition in vivo at 1 mg/kg [2]: 96%
residual rate [3]: 67.7%

CCNC1CCN(c2c(-c3ccc(C(C)(C)C#N)cc3)cncc2-c2cc(Cl)cc(Cl)c2)CC1 [Example 5(4), 2-(4-{5-(3,5-dichlorophenyl)-4-[4-(ethylamino)-1-piperidinyl]-3-pyridinyl}phenyl)-2-methylpropanenitrile]
IC50 at 24 h [1]: 17 µM
EC50 (human SSTR2): 0.021 nM
inhibition in vivo at 1 mg/kg [2]: 89%
residual rate [3]: 74.9%

CCNC1CCN(c2c(/C=C(\C)c3cccc(F)c3)cncc2-c2cc(Cl)cc(Cl)c2)CC1 [Example 5(5), 1-{3-(3,5-dichlorophenyl)-5-[(1E)-2-(3-fluorophenyl)-1-propen-1-yl]-4-pyridinyl}-N-ethyl-4-piperidineamine]
IC50 at 24 h [1]: 17 µM
EC50 (human SSTR2): 0.071 nM
inhibition in vivo at 1 mg/kg [2]: 85%
residual rate [3]: 88.6%

CCNC1CCN(c2c(/C=C/c3cccc(C#N)c3)cncc2-c2cc(Cl)cc(Cl)c2)CC1 [Example 5(6), 3-[(E)-2-{5-(3,5-dichlorophenyl)-4-[4-(ethylamino)-1-piperidinyl]-3-pyridinyl}vinyl]benzonitrile]
IC50 at 24 h [1]: 18 µM
EC50 (human SSTR2): 0.048 nM
inhibition in vivo at 1 mg/kg [2]: 89%
residual rate [3]: 83.9%
